Assay results reported in patent US20100086931A1, “METHOD FOR ASSAYING ACTION OF ANTITUMOR AGENT USING DECREASE IN GENE EXPRESSION LEVEL AS INDEX” (Eisai R&D Management Co., Ltd., priority 2007, published 2010).

Legend:
[1] = test system: peripheral blood mononuclear cells (PBMC); test: qPCR (TaqMan) measurement of mRNA expression in PBMC treated with compound A; assay type: cell-based, human; conditions: 30 nM; untreated cells = 1; corrected by 18S rRNA
[2] = test system: peripheral blood mononuclear cells (PBMC); test: Microarray analysis (Human Exon 1.0 ST Array) of gene expression in PBMC; assay type: cell-based; conditions: vs untreated group
From the text: Since it is not easy to obtain a cancer tissue clinically, the measurement of the marker in hemocytes readily obtainable in peripheral blood would be more useful. It was then examined whether the marker gene obtained in cancer cells could change in peripheral mononuclear cells in a similar manner as observed in the cancer cells. Specifically peripheral blood was taken from three normal individuals (volunteers) and peripheral mononuclear cells were purified and treated with (8E,12E,14E)-7-((4-Cycloheptylpiperazin-1-yl)carbonyl)oxy-3,6,16,21-tetrahydroxy-6,10,12,16,20-pentamethyl-18,19-epoxytricosa-8,12,14-trien-11-olide for six hours, followed by measurement of change in expression of the gene by a microarray (Human Exon 1.0 ST Array: Affymetrix).
Ficoll-Paque PLUS solution (Amersham, 17-1440-02) was slowly added to the blood taken (with heparin added) from healthy individuals to form a layer underneath the blood (15 ml of Ficoll-Paque PLUS solution was added to 25 ml of blood). After the mixture was centrifuged at 1500 rpm for 30 min, the upper part containing platelets was removed and then a layer containing mononuclear cells was transferred to another tube. The cells were suspended in PBS and centrifuged at 1500 rpm for 5 min, followed by removal of the supernatant. After these steps were repeated twice, the cells were again suspended in RPMI1640 (containing 10% FBS, penicillin, and streptomycin) and the number of the cells was then counted.
PBMC was suspended in RPMI1640 medium (containing 10% FBS, penicillin, and streptomycin) to 5×10^6 cells/ml and 1 ml of the suspension was plated per well of a 24-well plate. Immediately, 111 μl of 10 times-concentrated (8E,12E,14E)-7-((4-Cycloheptylpiperazin-1-yl)carbonyl)oxy-3,6,16,21-tetrahydroxy-6,10,12,16,20-pentamethyl-18,19-epoxytricosa-8,12,14-trien-11-olide was added to the well (six wells per each concentration tested). The cells were then cultured in an incubator with 5% carbon dioxide gas at 37° C. Three hours later, the supernatant was collected and centrifuged at 1500 rpm for five minutes. TRI reagent (SIGMA) (1 ml) was added to each well of the plate from which the supernatant was removed to harvest the cells, which was added to the centrifuged pellet to dissolve. RNA was purified in accordance with the protocol of TRI reagent. RNA was further purified using RNeasy (QIAGEN) and, in accordance with the protocol, DNase I was added to the samples during the procedure. Absorbance at 260 nm was measured to quantify an amount of RNA.
Ribosomal RNA was removed from 1 μg of each RNA by using RiboMinus Human/Mouse Transcriptome Isolation Kit (Invitrogen). Single stranded cDNA synthesis, double stranded cDNA synthesis, cRNA synthesis, second single stranded cDNA synthesis, cDNA fragmentation, and cDNA labeling in order were carried out for total RNA from which ribosomal RNA was removed, using GeneChip Whole Transcript Sense Target Labeling and Control Reagents (Affymetrix) to make a cDNA probe. Subsequently, the cDNA probe was used for hybridization with Human Exon 1.0 ST Array (Affymetrix). The array was washed and stained, and luminescence intensity was measured by a scanner.
The expression level of the gene was quantified by using Expression Console Ver. 1.0 (Affymetrix) with Summarization Method and Normalization Method being set to “Median polish as used in RMA” and “None”, respectively.
Genes showing the change in the expression of the gene in both groups with the 10 nM treatment and the 30 nM treatment is, compared to that in the […], less than 25%; the expression level of the gene in the untreated group is more than 100; both P values of t-test for the 10 nM treated group and the untreated group, and for the 30 nM treated group and the untreated group are less than 5% were picked out. (Table 4). […]

With `CCC(O)C(C)C1OC1CC(C)(O)/C=C/C=C(\C)C1OC(=O)CC(O)CCC(C)(O)C(OC(=O)N2CCN(C3CCCCCC3)CC2)/C=C/C1C` (stereo not drawn) [E7107, (8E,12E,14E)-7-((4-Cycloheptylpiperazin-1-yl)carbonyl)oxy-3,6,16,21-tetrahydroxy-6,10,12,16,20-pentamethyl-18,19-epoxytricosa-8,12,14-trien-11-olide] the “ZCCHC8 mRNA expression level (qPCR)” value [1] was 0.13, the “Fold Change in expression level of ARFGAP3 (Transcript Cluster 3962587)” value ([2]; 10 nM) was 0.21 and the “Fold Change in expression level of C13orf31 (Transcript Cluster 3487600)” value ([2]; 10 nM) was 0.21. For the same compound, the “Fold Change in expression level of CD274 (Transcript Cluster 3161082)” value ([2]; 10 nM) was 0.19, the “Fold Change in expression level of CTSL1 (Transcript Cluster 3178147)” value ([2]; 10 nM) was 0.09 and the “Fold Change in expression level of DOCK4 (Transcript Cluster 3068097)” value ([2]; 10 nM) was 0.16. For the same compound, the “Fold Change in expression level of ENG (Transcript Cluster 3226097)” value ([2]; 10 nM) was 0.24, the “Fold Change in expression level of GK (Transcript Cluster 3972929)” value ([2]; 10 nM) was 0.19 and the “Fold Change in expression level of KMO (Transcript Cluster 2388085)” value ([2]; 10 nM) was 0.13. For the same compound, the “Fold Change in expression level of KYNU (Transcript Cluster 2508520)” value ([2]; 10 nM) was 0.10, the “Fold Change in expression level of LAIR1 (Transcript Cluster 3870824)” value ([2]; 10 nM) was 0.21 and the “Fold Change in expression level of NRIP3 (Transcript Cluster 3362159)” value ([2]; 10 nM) was 0.15. The “Fold Change in expression level of OLR1 (Transcript Cluster 3444043)” value ([2]; 10 nM) was 0.09, the “Fold Change in expression level of P2RX4 (Transcript Cluster 3434760)” value ([2]; 10 nM) was 0.22 and the “Fold Change in expression level of PIK3R5 (Transcript Cluster 3744680)” value ([2]; 10 nM) was 0.23. The “Fold Change in expression level of PLA2G7 (Transcript Cluster 2955827)” value ([2]; 10 nM) was 0.12, the “Fold Change in expression level of RCN1 (Transcript Cluster 3325503)” value ([2]; 10 nM) was 0.09 and the “Fold Change in expression level of SEMA6B (Transcript Cluster 3846860)” value ([2]; 10 nM) was 0.23. The “Fold Change in expression level of SLAMF7 (Transcript Cluster 2363202)” value ([2]; 10 nM) was 0.15, the “Fold Change in expression level of SLC7A11 (Transcript Cluster 2786322)” value ([2]; 10 nM) was 0.13 and the “Fold Change in expression level of SLC37A2 (Transcript Cluster 3354443)” value ([2]; 10 nM) was 0.21. For the same compound, the “Fold Change in expression level of SLC41A2 (Transcript Cluster 3469180)” value ([2]; 10 nM) was 0.21, the “Fold Change in expression level of SLC43A2 (Transcript Cluster 3740367)” value ([2]; 10 nM) was 0.22 and the “Fold Change in expression level of SLC43A3 (Transcript Cluster 3373845)” value ([2]; 10 nM) was 0.17. The “Fold Change in expression level of STEAP4 (Transcript Cluster 3060332)” value ([2]; 10 nM) was 0.20, the “Fold Change in expression level of TNFAIP6 (Transcript Cluster 2510464)” value ([2]; 10 nM) was 0.18 and the “Fold Change in expression level of TNFSF15 (Transcript Cluster 3222128)” value ([2]; 10 nM) was 0.10. The “Fold Change in expression level of TRAF1 (Transcript Cluster 3223738)” value ([2]; 10 nM) was 0.19, the “Fold Change in expression level of TRAPPC4 (Transcript Cluster 3351775)” value ([2]; 10 nM) was 0.23 and the “Fold Change in expression level of ARFGAP3 (Transcript Cluster 3962587)” value ([2]; 30 nM) was 0.14. The “Fold Change in expression level of C13orf31 (Transcript Cluster 3487600)” value ([2]; 30 nM) was 0.19, the “Fold Change in expression level of CD274 (Transcript Cluster 3161082)” value ([2]; 30 nM) was 0.18 and the “Fold Change in expression level of CTSL1 (Transcript Cluster 3178147)” value ([2]; 30 nM) was 0.09. The “Fold Change in expression level of DOCK4 (Transcript Cluster 3068097)” value ([2]; 30 nM) was 0.14, the “Fold Change in expression level of ENG (Transcript Cluster 3226097)” value ([2]; 30 nM) was 0.20 and the “Fold Change in expression level of GK (Transcript Cluster 3972929)” value ([2]; 30 nM) was 0.21. For the same compound, the “Fold Change in expression level of KMO (Transcript Cluster 2388085)” value ([2]; 30 nM) was 0.13, the “Fold Change in expression level of KYNU (Transcript Cluster 2508520)” value ([2]; 30 nM) was 0.10 and the “Fold Change in expression level of LAIR1 (Transcript Cluster 3870824)” value ([2]; 30 nM) was 0.14. The “Fold Change in expression level of NRIP3 (Transcript Cluster 3362159)” value ([2]; 30 nM) was 0.13, the “Fold Change in expression level of OLR1 (Transcript Cluster 3444043)” value ([2]; 30 nM) was 0.04 and the “Fold Change in expression level of P2RX4 (Transcript Cluster 3434760)” value ([2]; 30 nM) was 0.22. For the same compound, the “Fold Change in expression level of PIK3R5 (Transcript Cluster 3744680)” value ([2]; 30 nM) was 0.21, the “Fold Change in expression level of PLA2G7 (Transcript Cluster 2955827)” value ([2]; 30 nM) was 0.15 and the “Fold Change in expression level of RCN1 (Transcript Cluster 3325503)” value ([2]; 30 nM) was 0.17. For the same compound, the “Fold Change in expression level of SEMA6B (Transcript Cluster 3846860)” value ([2]; 30 nM) was 0.22, the “Fold Change in expression level of SLAMF7 (Transcript Cluster 2363202)” value ([2]; 30 nM) was 0.14 and the “Fold Change in expression level of SLC7A11 (Transcript Cluster 2786322)” value ([2]; 30 nM) was 0.06. For the same compound, the “Fold Change in expression level of SLC37A2 (Transcript Cluster 3354443)” value ([2]; 30 nM) was 0.23, the “Fold Change in expression level of SLC41A2 (Transcript Cluster 3469180)” value ([2]; 30 nM) was 0.17 and the “Fold Change in expression level of SLC43A2 (Transcript Cluster 3740367)” value ([2]; 30 nM) was 0.18. The “Fold Change in expression level of SLC43A3 (Transcript Cluster 3373845)” value ([2]; 30 nM) was 0.14, the “Fold Change in expression level of STEAP4 (Transcript Cluster 3060332)” value ([2]; 30 nM) was 0.22 and the “Fold Change in expression level of TNFAIP6 (Transcript Cluster 2510464)” value ([2]; 30 nM) was 0.19. For the same compound, the “Fold Change in expression level of TNFSF15 (Transcript Cluster 3222128)” value ([2]; 30 nM) was 0.07, the “Fold Change in expression level of TRAF1 (Transcript Cluster 3223738)” value ([2]; 30 nM) was 0.17 and the “Fold Change in expression level of TRAPPC4 (Transcript Cluster 3351775)” value ([2]; 30 nM) was 0.21.
